Measured values taken from patent US20080161247A1, “Synergistic composition for modulating activity of substrate analogs for NAD+, NADP+, NADH or NADPH dependent enzymes and process thereof” (priority 2006, published 2008).
Like-named read-outs stand apart in the source and are kept apart here.

Tests used:
[1] = tested on: P. falciparum culture; experiment: Growth inhibition assay, [3H] hypoxanthine incorporation; type: cell-based, Plasmodium falciparum
Description: Culture media with or without inhibitors was changed daily. Parasites were synchronized at the ring stage with 5% D-sorbitol for all and the cultures were pooled at ring or trophozoite stage with 12-15% parasitemia. Free parasites were released from the red blood cells with 0.15% saponin.
The growth of P. falciparum was quantified by measuring the incorporation of [^3H] hypoxanthine.

[2] = molecular target: T1, PfENR (Plasmodium falciparum, UniProt Q9BH77); type: biochemical; conditions: triclosan with PfENR in presence of the catechin
T1 construct: The overexpression of PfENR was carried out [22]; made in house
Method: The reaction was started by the addition of 50 nM of PfENR.
The reaction was monitored at 340 nm and the formation of (NAD^+) was plotted as a function of time using equation 3 to get the dissociation constant by non-linear regression analysis of the data.
Progress curves gave the value of kobs and the k5 or association rate constants were determined by fitting the values of kobs with experimentally determined k6 values in equation 4.
The relationship between Ki, k5, k6 and kobs is described by equation 4.
The overall inhibition constant Ki* is calculated by equation 5.

[3] = molecular target: T2, Plasmodium falciparum enoyl-Acyl carrier protein (ACP) reductase (PfENR) (Plasmodium falciparum, UniProt Q9BH77); experiment: biochemical; conditions: for Ki: Dixon plot
T2 sequence (Q9BH77 22-432): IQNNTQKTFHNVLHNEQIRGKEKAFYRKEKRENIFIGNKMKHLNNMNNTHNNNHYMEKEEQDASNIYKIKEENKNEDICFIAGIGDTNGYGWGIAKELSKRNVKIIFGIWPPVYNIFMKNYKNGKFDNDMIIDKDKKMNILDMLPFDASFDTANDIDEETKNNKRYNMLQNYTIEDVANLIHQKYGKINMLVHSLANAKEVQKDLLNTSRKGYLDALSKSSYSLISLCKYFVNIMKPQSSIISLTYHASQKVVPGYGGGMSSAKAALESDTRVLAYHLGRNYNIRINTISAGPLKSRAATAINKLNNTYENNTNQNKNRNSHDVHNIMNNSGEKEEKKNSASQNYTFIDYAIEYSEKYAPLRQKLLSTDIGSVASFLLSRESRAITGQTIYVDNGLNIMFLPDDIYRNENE
Method: Enzyme assays and inhibition studies were performed on a UV-Vis spectrophotometer (Jasco) at 25° C. in 20 mM Tris/HCl pH 7.4 containing 150 mM NaCl [13, 14]. The standard reaction mixture of 100 μl contained 200 μM crotonoyl-CoA, 100 μM NADH and 30 nM PfENR. All the inhibitors were dissolved in DMSO. 1% V/V DMSO was used in the standard reaction mixture. The reaction proceeds by reduction of crotonoyl-CoA to butyl-CoA with the oxidation of NADH to NAD^+ which is monitored at 340 nm (□∈^M340=6220 M−1 cm−1).
IC50 values of the tea catechins and polyphenolic compounds for PfENR were determined by plotting the percent inhibition of PfENR at various concentrations of inhibitory compounds. […] The percent activity thus calculated was plotted against log of concentration of respective catechins. The data was analyzed by nonlinear regression method using sigmoidal model and IC50 values for each catechin was calculated from the sigmoidal curve.
The sigmoidal curve indicates the best fit for the data.
Ki of individual catechins with respect to NADH and crotonoyl-CoA were determined in separate experiments. […] All the data were analyzed by Dixon plot [8].
All the data of individual experiments were repeated thrice and the mean value was taken for data analysis. The Ki values were determined for each experiment from the X-intercept of the Dixon plot [8].
The data were plotted using the following Dixon equations for competitive and uncompetitive kinetics, respectively.

[4] = tested on: P. berghei; experiment: Four day suppressive test, survival of P. berghei infected mice; type: in vivo, P. berghei in Balb/c mice; conditions: P. berghei infected Balb/c mice; triclosan 20 mg/kg, EGCG 30 mg/kg, 4 days
Method: Randomly bred male Balb/c mice, 6 in numbers, weighing 22-25 grams were inoculated intravenously with 10 million P. berghei parasitized red blood cells. […] Giemsa-stained blood smears for 5 days and thereafter was prepared from the infected animals to assess percentage parasitemia. The survival of the mice was monitored for the following week.

[5] = tested on: fatty acid synthesis in P. falciparum cultures; experiment: Incorporation of [14C] acetate into fatty acids in P. falciparum cultures; type: cell-based; conditions: Plasmodium falciparum
Method: Fatty acid synthesis in P. falciparum cultures and the effect of a 2′-dihydroxyphenyl ether indicated in formula 1 and 2 with or without flavonoid was evaluated by incorporating [14C] acetate into fatty acids [Surolia and Surolia Nature Medicine, (2001) 7, 167-173].

[6] = molecular target: T1, PfENR; type: binding; conditions: 1 μM [3H]EGCG
Method: Binding studies of [^3H] […] Briefly, for gel filtration chromatography, 2 ml Sephadex G-25 column was packed and equilibrated with the reaction buffer. For each run 50 μl of the reaction mixture was loaded and 20 fractions of 100 μl were collected at 0.25 ml/min flow rate. All the fractions were spotted on Whatman 3 filter paper and dried before taking the counts. In the filter binding assay method, the reaction mixtures were directly applied on the activated Polyvinylidene difluoride (PVDF) membrane fixed in a filtration assembly. The filters were washed with 200 μl of reaction buffer and dried. Dried filters were transferred to vials containing 5 ml scintillation fluid and the radioactivity measured using a Hewlett Packard liquid scintillation counter.
To check the binding of [^3H] […] The concentration of [^3H]
[^3H] […] (FIG. 4d) Double reciprocal plot of the same data is shown in the inset.
The binding constants for the above experiments were determined from saturation plots and by Scatchard plot or double reciprocal plot using equation 2a and 2b described under evaluation section.

[7] = molecular target: T1, PfENR; type: binding; conditions: equation 7
[8] = tested on: E. coli O55:B5; experiment: Survival of mice post bacterial infection; type: in vivo, E. coli in BALB/c mice; conditions: BALB/c mice, 10^7 CFU E. coli O55:B5, D-galactosamine primed; triclosan 40 mg/kg, EGCG 50 mg/kg
Method: Agents and Chemother. 12, 3859-3866 (2003) which is detailed below:—
Third group of animals received injections of both Triclosnan and ECGC as above. Controlled group was injected PBS and/or ethanol (500 μl).
For each experiment 6 BALB/c male mice, 6-9 week of age per group were used.
Infection of animals by bacteria: The animals were injected i.p or s.c with 0.4 ml of pyrogen free saline containing 10^7 CFU of bacteria (E. coli O55:B5) and primed with D-galactosamine (300 mg/kg of body weight); (Galanos at al. (1979) Proc. Natl. Acad. Sci. USA, 76, 5939-5943).
The mice was monitored for survival on an hourly basis.

[9] = molecular target: T3, human aldose reductase (ALR2) (Homo sapiens, UniProt P15121); experiment: Fluorescence quenching dissociation constants with aldose reductase; type: binding
T3 construct: hexa-His (cleaved yes); made in house; host or cells: E. coli BL-21(DE3)
Method: The cloning of human ALR2 gene was done as described before with slight modification. In brief, the open reading frame of the human AR2 gene (Accession GenBank/EMBL Data Bank number J05017) was amplified by the polymerase chain reaction from its cDNA and cloned into the T7 RNA polymerase-based vector pET28a(+) vector (Novagen). The positive clone was sequenced and then transformed into BL-21(DE3) cells for expression. The culture (5 L) was grown at 37° C. till OD600 of 0.8, induced by 1 mM IPTG and grown further at 37° C. for next 3 h. The cells were pelleted, sonicated and the clear supernatant was loaded to Ni-NTA resin. The purified hexa-His tagged human AR2 was subjected to thrombin cleavage and loaded […]. The His-tag cleaved AR2 was further loaded on DEAE Sephadex A-50 column (Pharmacia) and eluted with an NaCl gradient. The purity of the final enzyme preparation was checked on 12% SDS-PAGE.
Ki in all the four cased were calculated strictly using equations mentioned in Example 11.

[10] = Plasmodium falciparum, Erythrocyte, growth of malaria culture in red blood cells, read-out: IC50 on P. falciparum culture
[11] = Ki in presence of TCL [nM], Ki of the catechin at 50 nM and 100 nM triclosan
[12] = Ki w.r.t. NADH [μM], competitive, NADH 50, 100, 200 μM, crotonoyl-CoA 200 μM
[13] = Ki w.r.t. crotonoyl-CoA [μM], uncompetitive, NADH 100 μM
[14] = binary complex, read-out: Ki with ALR2

O=c1c(O)c(-c2ccc(O)c(O)c2)oc2cc(O)cc(O)c12 [Quercetin, quercetin]
IC50 [1, 10]: 20.7 µM
Association rate constant k5 of triclosan [2]: 3.1 ± 0.0786 [10^−3]s^−1
IC50 [3]: 2.5 ± 0.078 µM
Ki [3, 11]: 22 ± 0.85 nM
Ki [3, 12]: 1090 ± 89 nM
Ki [3, 13]: 473 ± 11 nM

CCN(CC)CCCC(C)Nc1ccnc2cc(Cl)ccc12 (stereo not shown) [chloroquine, reference compound]
IC50 ([1]; Plasmodium falciparum, read-out: IC50 for chloroquine, strain MP-14): 0.3 µM
IC50 ([1]; Plasmodium falciparum, read-out: IC50 of chloroquine, strain FCK2): 0.018 µM

(−) epigallocatechin gallate [EGCG]
IC50 ([1]; growth of malaria culture in red blood cells, read-out: IC50 on P. falciparum culture): 191 µM

Oc1cc(Cl)ccc1Oc1ccc(Cl)cc1Cl [Triclosan, 5-chloro-2-(2,4-dichlorophenoxy)phenol]
Mice surviving from a group of 6 on Day 6 [4]: 3 ± 1
Mice surviving from a group of 6 on Day 12 [4]: 1 ± 1
inhibition at 9 µM [5]: 90%
Association constant of triclosan, double reciprocal plot [6]: 14 ± 0.77 µM⁻¹
Association constant of triclosan, saturation kinetics [6]: 22.18 ± 1.7 µM⁻¹
k5 of triclosan in presence of EGCG from slow decrease of fluorescence [7]: 0.0072±0.84×10^−5 s^−1
Survival Time [8]: 45 ± 6 h

O=CC1CCCCC1 [1-Cyclohexylaldehyde]
Ki [9, 14]: 330 ± 45 µM
Ki ([9]; read-out: Ki value in the presence of quercetin, 2 μM quercetin preincubated): 0.0141 ± 0.0031 µM

O=C(O[C@@H]1Cc2c(O)cc(O)cc2O[C@@H]1c1ccc(O)c(O)c1)c1cc(O)c(O)c(O)c1 [ECG, (−) epicatechin gallate]
IC50 ([1]; Plasmodium falciparum, Erythrocyte, read-out: IC50 on P. falciparum culture): 4.7 µM
Association rate constant k5 of triclosan [2]: 6.3 ± 0.135 [10^−3]s^−1
IC50 [3]: 0.5 ± 0.016 µM
Ki [3, 11]: 16 ± 0.45 nM
Ki [3, 12]: 291 ± 7.6 nM
Ki [3, 13]: 102 ± 4.6 nM

Oc1cc(O)c2c(c1)O[C@H](c1cc(O)c(O)c(O)c1)[C@H](O)C2 [EGC, (−) epigallocatechin]
IC50 [1, 10]: 211 µM
Association rate constant k5 of triclosan [2]: 5.4 ± 0.097 [10^−3]s^−1
IC50 [3]: 7 ± 0.085 µM
Ki [3, 11]: 17.6 ± 0.67 nM
Ki [3, 12]: 3750 ± 54 nM
Ki [3, 13]: 2000 ± 78 nM

O=CC(O)CO (stereo not shown) [Glyceraldehyde, glyceraldehyde]
fold decrease of Kd of glyceraldehyde by quercetin ([9]; 2 μM quercetin): more than 10 fold
Kd ([9]; Kd of glyceraldehyde in the presence of quercetin, 2 μM quercetin): 40 µM
Ki [9, 14]: 510 ± 54 µM
Kd ([9]; without quercetin, read-out: Kd of glyceraldehyde with aldose reductase): 510 µM

O=C(/C=C/c1ccc(O)c(O)c1)c1ccc(O)cc1O [Buteine, butein]
IC50 [1, 10]: 49.7 µM
Association rate constant k5 of triclosan [2]: 2.1 ± 0.108 [10^−3]s^−1
IC50 [3]: 12.5 ± 0.67 µM
Ki [3, 11]: 14 ± 0.57 nM
Ki [3, 12]: 5500 ± 100 nM
Ki [3, 13]: 2970 ± 77 nM
